Source: patent US9096624B2 (OSI Pharmaceuticals, LLC, priority 2009, dated 2015)

What was measured:
FAK [1] = target: T1, FAK (Homo sapiens, UniProt Q05397); test: biochemical
FAK [2] = target: T1, FAK; test: Cell-based capture ELISA for inhibition of FAK autophosphorylation [pY397] in MiaPaCa2 cells
Experimental: Cell-Based Assays for Inhibition of FAK Autophosphorylation: MiaPaCa2 and U87MG
ELISA kit from Invitrogen (KHO0441).
Reagents Provided in Biosource FAK [pY397]
The cells were then suspended in cell assay medium.

[3] = MIA-PaCa2 cells on fibronectin, 2 h, no plasma, read-out: Mean FAK Cell Mechanistic IC50 MIA-PaCa2
[4] = MIA-PaCa2 cells, + 50% human plasma, read-out: Mean FAK Cell Mechanistic IC50 + 50% hP MIA-PaCa2
[5] = MIA-PaCa2 cells, + 50% mouse plasma (Table 2), read-out: Mean FAK Cell Mechanistic IC50 + 50% mP MIA-PaCa2
[6] = MIA-PaCa2 cells, + 50% mouse plasma (Table 3), read-out: Mean FAK Cell Mechanistic IC50 + 50% mP MIA-PaCa2

T1 sequence (Q05397 whole entry): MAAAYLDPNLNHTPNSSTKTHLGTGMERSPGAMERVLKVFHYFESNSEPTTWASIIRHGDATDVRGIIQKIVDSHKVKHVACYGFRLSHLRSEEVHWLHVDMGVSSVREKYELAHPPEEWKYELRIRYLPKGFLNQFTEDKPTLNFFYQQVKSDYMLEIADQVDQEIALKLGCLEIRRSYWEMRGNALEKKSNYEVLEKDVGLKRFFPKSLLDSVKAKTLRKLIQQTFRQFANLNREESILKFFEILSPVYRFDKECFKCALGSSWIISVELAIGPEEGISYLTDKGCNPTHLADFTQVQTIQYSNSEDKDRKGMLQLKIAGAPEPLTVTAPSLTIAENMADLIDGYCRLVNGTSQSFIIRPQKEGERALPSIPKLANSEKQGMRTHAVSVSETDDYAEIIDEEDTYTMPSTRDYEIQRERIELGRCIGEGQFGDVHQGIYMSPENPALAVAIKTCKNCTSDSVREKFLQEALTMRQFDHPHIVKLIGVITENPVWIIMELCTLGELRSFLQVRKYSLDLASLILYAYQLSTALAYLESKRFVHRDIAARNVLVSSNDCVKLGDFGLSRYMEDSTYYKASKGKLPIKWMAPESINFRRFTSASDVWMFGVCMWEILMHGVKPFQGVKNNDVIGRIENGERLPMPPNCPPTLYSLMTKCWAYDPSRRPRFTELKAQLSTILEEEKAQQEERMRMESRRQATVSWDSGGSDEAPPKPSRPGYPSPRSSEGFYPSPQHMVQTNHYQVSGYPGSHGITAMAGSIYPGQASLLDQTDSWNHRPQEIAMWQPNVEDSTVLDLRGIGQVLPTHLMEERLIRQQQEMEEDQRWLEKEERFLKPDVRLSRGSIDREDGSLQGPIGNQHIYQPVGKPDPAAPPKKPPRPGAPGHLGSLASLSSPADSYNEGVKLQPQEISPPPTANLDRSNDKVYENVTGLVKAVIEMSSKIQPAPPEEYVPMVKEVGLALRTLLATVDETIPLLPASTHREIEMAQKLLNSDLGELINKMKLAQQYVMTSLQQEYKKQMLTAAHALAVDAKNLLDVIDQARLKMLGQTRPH

| Structure (SMILES) | IC50 (FAK [1]) [µM] | IC50 (FAK [2]; [3]) [µM] | IC50 (FAK [2]; [4]) [µM] | IC50 (FAK [2]; [5]) [µM] | IC50 (FAK [2]; [6]) [µM] |
| --- | --- | --- | --- | --- | --- |
| CCOP(=O)(Cc1ccc(Nc2ncc(Br)c(Nc3ccccc3C(=O)NC)n2)cc1)OCC [Example 49, Diethyl {4-[(5-bromo-4-{[2-(methylcarbamoyl)phenyl]amino}pyrimidin-2-yl)amino]benzyl}phosphonate] | < 1 | < 1 | < 1 |  |  |
| CCOP(=O)(Cc1ccc(Nc2ncc(C(F)(F)F)c(Nc3ccc(N4CCCC4)c4c3C(=O)N(C)C4)n2)c(OC)c1)OCC [Example 83, Diethyl (3-methoxy-4-{[4-{[2-methyl-3-oxo-7-(pyrrolidin-1-yl)-2,3-dihydro-1H-isoindol-4-yl]amino}-5-(trifluoromethyl)pyrimidin-2-yl]amino}benzyl)phosphonate] | < 1 |  |  | < 1 |  |
| CN(c1ncccc1CNc1nc(Nc2ccc(CP3(=O)OCC(C)(C)CO3)cc2)ncc1C(F)(F)F)S(C)(=O)=O [Example 32, N-[3-({[2-({4-[(5,5-dimethyl-2-oxido-1,3,2-dioxaphosphinan-2-yl)methyl]phenyl}amino)-5-(trifluoromethyl)pyrimidin-4-yl]amino}methyl)pyridin-2-yl]-N-methylmethanesulfonamide] | < 1 | < 1 | < 1 | < 1 |  |
| CCOP(=O)(Cc1ccc(Nc2ncc(C(F)(F)F)c(Nc3ccc(Br)c4c3C(=O)N(C)C4)n2)c(OC)c1)OCC [Example 62, Diethyl [4-({4-[(7-bromo-2-methyl-3-oxo-2,3-dihydro-1H-isoindol-4-yl)amino]-5-(trifluoromethyl)pyrimidin-2-yl}amino)-3-methoxybenzyl]phosphonate] | < 1 | < 1 | 1 to 10 |  |  |
| CCOP(=O)(O)Cc1ccc(Nc2ncc(C(F)(F)F)c(NCc3cccnc3N(C)S(C)(=O)=O)n2)cc1 [Example 42, Ethyl hydrogen [4-({4-[({2-[methyl(methylsulfonyl)amino]pyridin-3-yl}methyl)amino]-5-(trifluoromethyl)pyrimidin-2-yl}amino)benzyl]phosphonate] | < 1 | 1 to 10 | 1 to 10 |  |  |
| CNC(=O)c1ccccc1Nc1nc(Nc2ccc(CP(=O)(OCCOC)OCCOC)cc2)ncc1C(F)(F)F [Example 185, Bis(2-methoxyethyl) (4-{[4-{[2-(methylcarbamoyl)phenyl]amino}-5-(trifluoromethyl)pyrimidin-2-yl]amino}benzyl)phosphonate] | < 1 |  |  |  | < 1 |
| CCOP(=O)(Cc1ccc(Nc2ncc(C(F)(F)F)c(Nc3ccccc3C(=O)NC)n2)c(Cl)c1)OCC [Example 104, Diethyl (3-chloro-4-{[4-{[2-(methylcarbamoyl)phenyl]amino}-5-(trifluoromethyl)pyrimidin-2-yl]amino}benzyl)phosphonate] | < 1 |  |  |  | < 1 |
| CCOP(C)(=O)Cc1ccc(Nc2ncc(C(F)(F)F)c(Nc3ccc(C#CCO)c4c3C(=O)N(C)C4)n2)cc1 (stereo not drawn) [Example 77, Ethyl (4-{[4-{[7-(3-hydroxyprop-1-yn-1-yl)-2-methyl-3-oxo-2,3-dihydro-1H-isoindol-4-yl]amino}-5-(trifluoromethyl)pyrimidin-2-yl]amino}benzyl)methylphosphinate] | < 1 | < 1 | < 1 |  |  |
| CCOP(=O)(Cc1ccc(Nc2ncc(C(F)(F)F)c(Nc3ccc(OC)c4c3C(=O)N(C)C4)n2)c(OC)c1)OCC [Example 209, Diethyl [3-methoxy-4-({4-[(7-methoxy-2-methyl-3-oxo-2,3-dihydro-1H-isoindol-4-yl)amino]-5-(trifluoromethyl)pyrimidin-2-yl}amino)benzyl]phosphonate] | < 1 |  |  |  | < 1 |
| CCOP(=O)(Cc1ccccc1Nc1ncc(C(F)(F)F)c(NCc2cccnc2N(C)S(C)(=O)=O)n1)OCC [Example 3, Diethyl [2-({4-[({2-[methyl(methylsulfonyl)amino]pyridin-3-yl}methyl)amino]-5-(trifluoromethyl)pyrimidin-2-yl}amino)benzyl]phosphonate] | < 1 | > 10 | > 10 |  |  |
